Measurements: patent US9498479B2, “Dihydropyrimidine compounds and their application in pharmaceuticals” (SUNSHINE LAKE PHARMA CO., LTD., priority 2013, dated 2016)

Test system: HBV
Test: In-vitro anti-HBV activity in stable HBV-producing cell line (HepG2.2.15), HBV DNA in culture fluid by qPCR
Assay type: cell-based
Conditions: Hepatitis B virus, 168 h; HepG2.2.15 cells, HBV DNA in culture media on day 7, qPCR
Procedure: Specific procedures are as follows:
HepG2.2.15 cells were seeded into each well of 96-well plates, 40,000 cells per well. Cells were treated with cell culture medium containing compounds with different concentrations 24 hours after cell seeding. The final concentration of each compound was 16.4 μM in each well and each compound was diluted to desired concentration using 3-fold gradient dilution protocol, 9 diluted points in duplicate. The culture mediums containing the compounds were refreshed on day 4 post cell seeding. Culture media were collected from the HepG2.2.15 plates on day 7 post cell seeding followed by HBV DNA extraction.
HBV DNA extraction: The HBV DNA extraction was performed using QIAamp 96 DNA Blood Kit (QIAGEN 51161).
PCR for quantification: PCR mix was prepared according to PCR system. PCR mix was dispensed to 96-well optical reaction plates (special for quantification). The standard diluted proportionally was added. Then the sample was added; The plates were sealed with optical adhesive film; PCR system was performed according to programs.
Percentage of HBV inhibition of DNA replication by compound was calculated using the following equation: % Inh.=[1-HBV DNA quantity of sample/HBV DNA quantity of DMSO control]*100.
Calculating EC50 value of compounds to HBV replication: the EC50 values were calculated based on “four-parameter logistic equation” and using GraphPad Prism 5 analysis software.

Row | SMILES | EC50
1 | COC(=O)C1=C(CN2CC(F)(F)C[C@H]2CCC(=O)O)NC(c2nccs2)=N[C@H]1c1ccc(Cl)cc1Cl [Example 16, 3-((R)-1-(((R)-6-(2,4-dichlorophenyl)-5-(methoxycarbonyl)-2-(thiazol-2-yl)-3,6-dihydropyrimidin-4-yl)methyl)-4,4-difluoropyrrolidin-2-yl)propanoic acid] | 62 nM
2 | COC(=O)C1=C(CN2CC(F)(F)C[C@@H]2CCC(=O)O)NC(c2nccs2)=N[C@H]1c1ccc(F)cc1Br [Example 18, 3-((S)-1-(((R)-6-(2-bromo-4-fluorophenyl)-5-(methoxycarbonyl)-2-(thiazol-2-yl)-3,6-dihydropyrimidin-4-yl)methyl)-4,4-difluoropyrrolidin-2-yl)propanoic acid] | 14 nM
